Activity calls are given as the source filed them. No rule for the calls is given here.
Tested on: CCRIS mutagenicity, Ames/micronucleus/aberration tests
Assay: CCRIS mutagenicity studies
[1] = Test System: AMES SALMONELLA TYPHIMURIUM, Strain/Indicator: TA98, Metabolic Activation: NONE, Method: STANDARD PLATE
[2] = Test System: AMES SALMONELLA TYPHIMURIUM, Strain/Indicator: TA100, Metabolic Activation: NONE, Method: STANDARD PLATE
[3] = Test System: MOUSE LYMPHOMA, Strain/Indicator: L5178Y (TK+/TK-), Metabolic Activation: NONE, Method: SUSPENSION/PLATE
[4] = Test System: MOUSE LYMPHOMA, Strain/Indicator: L5178Y (TK+/TK-), Metabolic Activation: RAT, LIVER, S-9, AROCLOR 1254, Method: SUSPENSION/PLATE

Question: Which results are given for `O.O.O.O=C([O-])[C@H]([O-])[C@@H]([O-])C(=O)[O-].O=C([O-])[C@H]([O-])[C@@H]([O-])C(=O)[O-].[K+].[K+].[Sb+3].[Sb+3]`?
Answer: mutagenic call (Test System: AMES SALMONELLA TYPHIMURIUM, Strain/Indicator: TA98, Metabolic Activation: HAMSTER, LIVER, S-9, AROCLOR 1254, Method: STANDARD PLATE): inactive; negative; mutagenic call [1]: inactive; negative; mutagenic call (Test System: AMES SALMONELLA TYPHIMURIUM, Strain/Indicator: TA98, Metabolic Activation: RAT, LIVER, S-9, AROCLOR 1254, Method: STANDARD PLATE): inactive; negative; mutagenic call (Test System: AMES SALMONELLA TYPHIMURIUM, Strain/Indicator: TA100, Metabolic Activation: HAMSTER, LIVER, S-9, AROCLOR 1254, Method: STANDARD PLATE): inactive; negative; mutagenic call [2]: inactive; negative; mutagenic call (Test System: AMES SALMONELLA TYPHIMURIUM, Strain/Indicator: TA100, Metabolic Activation: RAT, LIVER, S-9, AROCLOR 1254, Method: STANDARD PLATE): inactive; negative; mutagenic call (Test System: AMES SALMONELLA TYPHIMURIUM, Strain/Indicator: TA1535, Metabolic Activation: HAMSTER, LIVER, S-9, AROCLOR 1254, Method: STANDARD PLATE): inactive; negative; mutagenic call (Test System: AMES SALMONELLA TYPHIMURIUM, Strain/Indicator: TA1535, Metabolic Activation: NONE, Method: STANDARD PLATE): inactive; negative; mutagenic call (Test System: AMES SALMONELLA TYPHIMURIUM, Strain/Indicator: TA1535, Metabolic Activation: RAT, LIVER, S-9, AROCLOR 1254, Method: STANDARD PLATE): inactive; negative; mutagenic call (Test System: AMES SALMONELLA TYPHIMURIUM, Strain/Indicator: TA1537, Metabolic Activation: HAMSTER, LIVER, S-9, AROCLOR 1254, Method: STANDARD PLATE): inactive; negative; mutagenic call (Test System: AMES SALMONELLA TYPHIMURIUM, Strain/Indicator: TA1537, Metabolic Activation: NONE, Method: STANDARD PLATE): inactive; negative; mutagenic call (Test System: AMES SALMONELLA TYPHIMURIUM, Strain/Indicator: TA1537, Metabolic Activation: RAT, LIVER, S-9, AROCLOR 1254, Method: STANDARD PLATE): inactive; negative; mutagenic call (Test System: AMES SALMONELLA TYPHIMURIUM, Strain/Indicator: TA1538, Metabolic Activation: HAMSTER, LIVER, S-9, AROCLOR 1254, Method: STANDARD PLATE): inactive; negative; mutagenic call (Test System: AMES SALMONELLA TYPHIMURIUM, Strain/Indicator: TA1538, Metabolic Activation: NONE, Method: STANDARD PLATE): inactive; negative; mutagenic call (Test System: AMES SALMONELLA TYPHIMURIUM, Strain/Indicator: TA1538, Metabolic Activation: RAT, LIVER, S-9, AROCLOR 1254, Method: STANDARD PLATE): inactive; negative; mutagenic call [3]: active; positive. reevaluation of results: positive; mutagenic call [4]: active; positive. reevaluation of results: positive

Question: What does the source list for `CCCCOC(=O)c1ccccc1C(=O)OCc1ccccc1`?
Answer: mutagenic call (End Point: IN VITRO CHROMOSOMAL ABERRATIONS, Test System: CHINESE HAMSTER OVARY CELLS, Metabolic Activation: NONE): inactive; negative; mutagenic call (End Point: IN VITRO CHROMOSOMAL ABERRATIONS, Test System: CHINESE HAMSTER OVARY CELLS, Metabolic Activation: RAT, LIVER, S-9, AROCLOR 1254): inactive; negative; mutagenic call (Test System: AMES SALMONELLA TYPHIMURIUM, Strain/Indicator: TA98, Metabolic Activation: HAMSTER, LIVER, S-9, AROCLOR 1254 (10%), Method: PREINCUBATION): inactive; negative; mutagenic call (Test System: AMES SALMONELLA TYPHIMURIUM, Strain/Indicator: TA98, Metabolic Activation: NONE, Method: PREINCUBATION): inactive; negative; mutagenic call (Test System: AMES SALMONELLA TYPHIMURIUM, Strain/Indicator: TA98, Metabolic Activation: RAT, LIVER, S-9, AROCLOR 1254 (10%), Method: PREINCUBATION): inactive; negative; mutagenic call (Test System: AMES SALMONELLA TYPHIMURIUM, Strain/Indicator: TA100, Metabolic Activation: HAMSTER, LIVER, S-9, AROCLOR 1254 (10%), Method: PREINCUBATION): inactive; negative; mutagenic call (Test System: AMES SALMONELLA TYPHIMURIUM, Strain/Indicator: TA100, Metabolic Activation: NONE, Method: PREINCUBATION): inactive; negative; mutagenic call (Test System: AMES SALMONELLA TYPHIMURIUM, Strain/Indicator: TA100, Metabolic Activation: RAT, LIVER, S-9, AROCLOR 1254 (10%), Method: PREINCUBATION): inactive; negative; mutagenic call (Test System: AMES SALMONELLA TYPHIMURIUM, Strain/Indicator: TA1535, Metabolic Activation: HAMSTER, LIVER, S-9, AROCLOR 1254 (10%), Method: PREINCUBATION): inactive; negative; mutagenic call (Test System: AMES SALMONELLA TYPHIMURIUM, Strain/Indicator: TA1535, Metabolic Activation: NONE, Method: PREINCUBATION): inactive; negative; mutagenic call (Test System: AMES SALMONELLA TYPHIMURIUM, Strain/Indicator: TA1535, Metabolic Activation: RAT, LIVER, S-9, AROCLOR 1254 (10%), Method: PREINCUBATION): inactive; negative; mutagenic call (Test System: AMES SALMONELLA TYPHIMURIUM, Strain/Indicator: TA1537, Metabolic Activation: HAMSTER, LIVER, S-9, AROCLOR 1254 (10%), Method: PREINCUBATION): inactive; negative; mutagenic call (Test System: AMES SALMONELLA TYPHIMURIUM, Strain/Indicator: TA1537, Metabolic Activation: NONE, Method: PREINCUBATION): inactive; negative; mutagenic call (Test System: AMES SALMONELLA TYPHIMURIUM, Strain/Indicator: TA1537, Metabolic Activation: RAT, LIVER, S-9, AROCLOR 1254 (10%), Method: PREINCUBATION): inactive; negative; mutagenic call [3]: inactive; negative; mutagenic call (Test System: MOUSE LYMPHOMA, Strain/Indicator: L5178Y (TK+/TK-), Metabolic Activation: RAT LIVER S-9, Method: SUSPENSION/PLATE): active; positive; mutagenic call [4]: inactive; negative

Question: Which mutagenic call [1] does the source give for `BrCc1c2ccccc2cc2ccc3ccccc3c12` here?
Answer: active; positive

Question: And the mutagenic call [2]?
Answer: active; positive

Question: For `COCCl`, which mutagenic call (End Point: IN VITRO CHROMOSOMAL ABERRATIONS, Test System: CHL CELLS, Metabolic Activation: NONE) is on record?
Answer: active; positive (structural and ploidy changes)

Question: And the mutagenic call (End Point: IN VITRO CHROMOSOMAL ABERRATIONS, Test System: CHL CELLS, Metabolic Activation: RAT, LIVER, S-9, SODIUM PHENOBARBITAL AND 5,6-BENZOFLAVONE)?
Answer: active; positive (structural changes)

Question: With `CCC(O)/C=C/C=O` (centres undefined) as the molecule, how does the mutagenic call (End Point: IN VITRO CHROMOSOMAL ABERRATIONS, Test System: RAT HEPATOCYTES, Metabolic Activation: NONE) read?
Answer: active; positive

Question: And the mutagenic call (End Point: IN VITRO MICRONUCLEUS, Test System: RAT HEPATOCYTES, Metabolic Activation: NONE)?
Answer: active; positive

Question: What does the source list for `O=c1cc(-c2ccccc2)cc(-c2ccccc2)n1/N=C/c1ccc([N+](=O)[O-])o1`?
Answer: mutagenic call (Test System: AMES SALMONELLA TYPHIMURIUM, Strain/Indicator: TA97, Metabolic Activation: NONE, Method: STANDARD PLATE): inactive; negative; mutagenic call [1]: inactive; negative; mutagenic call [2]: active; positive; mutagenic call (Test System: AMES SALMONELLA TYPHIMURIUM, Strain/Indicator: TA102, Metabolic Activation: NONE, Method: STANDARD PLATE): inactive; negative

Reference: PubChem BioAssay AID1259407 (Chemical Carcinogenesis Research Information System (CCRIS), 2018)
